Results published in patent publication US20240067668A1, “HETEROARYL DERIVATIVE COMPOUND AND USE THEREOF” (VORONOI INC., priority 2020, published 2024).

Legend:
[1] = biological target: EGFR Del19/T790M/C797S (Homo sapiens, UniProt P00533, C797S/T790M, form not given); assay: Enzyme IC50, EGFR Del19/T790M/C797S; assay type: biochemical
[2] = system: BaF3-EGFR (Del19/T790M/C797S) cells; assay: Inhibitory activity on Ba/F3 cell proliferation (CellTiter-Glo, 72 hours); assay type: cell-based; settings: Ba/F3 cells expressing EGFR Del19/T790M/C797S
Method: (§1) The following experiments were performed to evaluate the inhibitory activity of the compound represented by Chemical Formula 1 according to the present invention on the proliferation of Ba/F3 cells expressing EGFR mutants.
(§2) BaF3-EGFR (WT) and BaF3-EGFR (Del19/T790M/C797S) cells were seeded in a clear bottom white 96-well plate at a density of 3×10^3/100 μl/well, and then 0.5 μl/well of the culture medium, containing the compounds at 12 concentrations (0.00001-2 mM) serially diluted in 3 folds and the DMSO control, was added to a final concentration of 0.00005-10 μM, followed by culturing in a 37° C. CO2 incubator for 72 hours. After 72 hours, the plates treated with the compounds were taken out, treated with 100 μl/well of CellTiter-Glo® 2.0 Assay (Promega) solution, and mixed well. After mixing well at room temperature for about 10 minutes, […] was measured using a microplate reader. As to Data, GI50 (μM) values were calculated using GraphPad Prism 8.3.0 (GraphPad software Inc., San Diego) as percentages in proportion to vehicle-based treated cells. The result values were calculated as a cell growth rate (%) compared to the control group. A graph was created using the GraphPad Prism version 5.0 program, and GI50 (μM) values were calculated.

[3] = system: BaF3-EGFR (WT) cells; assay: as above; assay type: cell-based; settings: Ba/F3 cells expressing EGFR WT
Method: as §1, §2

Sequence of EGFR Del19/T790M/C797S (P00533 25-1210 T790M/C797S, form open): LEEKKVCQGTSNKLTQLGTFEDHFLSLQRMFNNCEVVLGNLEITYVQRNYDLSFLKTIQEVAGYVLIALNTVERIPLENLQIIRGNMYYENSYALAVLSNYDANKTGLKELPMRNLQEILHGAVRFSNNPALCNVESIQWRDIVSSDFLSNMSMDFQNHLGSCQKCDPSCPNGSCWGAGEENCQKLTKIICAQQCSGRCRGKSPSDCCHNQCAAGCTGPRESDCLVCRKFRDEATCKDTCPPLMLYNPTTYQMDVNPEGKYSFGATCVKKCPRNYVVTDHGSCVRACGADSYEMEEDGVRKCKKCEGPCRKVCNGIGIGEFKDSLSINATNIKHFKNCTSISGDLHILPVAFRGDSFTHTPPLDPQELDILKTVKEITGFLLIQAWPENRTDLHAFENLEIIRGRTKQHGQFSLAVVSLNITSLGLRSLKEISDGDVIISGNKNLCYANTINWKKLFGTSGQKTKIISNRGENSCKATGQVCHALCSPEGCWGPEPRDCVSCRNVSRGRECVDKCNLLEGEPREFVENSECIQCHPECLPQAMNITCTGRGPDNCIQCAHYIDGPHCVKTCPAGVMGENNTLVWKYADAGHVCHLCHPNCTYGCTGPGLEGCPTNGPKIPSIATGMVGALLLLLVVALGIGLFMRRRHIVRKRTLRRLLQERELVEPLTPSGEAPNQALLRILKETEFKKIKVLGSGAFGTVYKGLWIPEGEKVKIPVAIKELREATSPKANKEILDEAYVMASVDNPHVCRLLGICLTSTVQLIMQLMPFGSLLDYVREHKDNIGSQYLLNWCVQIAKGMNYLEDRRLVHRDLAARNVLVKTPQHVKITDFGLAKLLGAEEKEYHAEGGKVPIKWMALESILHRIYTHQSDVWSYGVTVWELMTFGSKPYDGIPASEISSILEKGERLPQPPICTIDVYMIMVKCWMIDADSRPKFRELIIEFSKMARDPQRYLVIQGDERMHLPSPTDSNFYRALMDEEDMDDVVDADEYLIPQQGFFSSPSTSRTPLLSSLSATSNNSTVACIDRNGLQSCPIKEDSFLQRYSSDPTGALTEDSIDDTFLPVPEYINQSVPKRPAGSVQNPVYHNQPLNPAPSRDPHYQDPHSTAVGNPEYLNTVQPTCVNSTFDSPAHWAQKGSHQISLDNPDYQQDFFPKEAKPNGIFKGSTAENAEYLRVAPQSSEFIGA

Structure (SMILES)	IC50 [1] [µM]	GI50 [2] [µM]	GI50 [3] [µM]
COc1cc(N2CCC(N3CCN(C)CC3)CC2)c(-c2cnn(C)c2)cc1Nc1nc(Nc2ccc3nccnc3c2P(C)(C)=O)c2cc[nH]c2n1 [Example 24, (6-((2-((2-methoxy-5-(1-methyl-1H-pyrazol-4-yl)-4-(4-(4-methylpiperazin-1-yl)piperidin-1-yl)phenyl)amino)-7H-pyrrolo[2,3-d]pyrimidin-4-yl)amino)quinoxalin-5-yl)dimethyl-phosphine oxide]	≤ 0.05	≤ 0.05	> 0.1
COc1cc(N2CCN(C)CC2)c(-c2ccsc2)cc1Nc1nc(Nc2ccc3nccnc3c2P(C)(C)=O)c2cc[nH]c2n1 [Example 76, (6-((2-((2-methoxy-4-(4-methylpiperazin-1-yl)-5-(thiophen-3-yl)phenyl)amino)-7H-pyrrolo[2,3-d]pyrimidin-4-yl)amino)quinoxalin-5-yl)dimethyl-phosphine oxide]	≤ 0.05	> 0.1	> 0.1
CCN1CCN(C2CCN(c3cc(OC)c(Nc4nc(Nc5ccc6nccnc6c5P(C)(C)=O)c5cc[nH]c5n4)cc3C)CC2)CC1 [Example 61, (6-((2-((4-(4-(4-ethylpiperazin-1-yl)piperidin-1-yl)-2-methoxy-5-methylphenyl)amino)-7H-pyrrolo[2,3-d]pyrimidin-4-yl)amino)quinoxalin-5-yl)dimethyl-phosphine oxide]	≤ 0.05	0.05 to 0.1	> 0.1
COc1cc(N2CCN(C)CC2)c(-c2cnc3ccccc3c2)cc1Nc1nc(Nc2ccc3nccnc3c2P(C)(C)=O)c2cc[nH]c2n1 [Example 71, (6-((2-((2-methoxy-4-(4-methylpiperazin-1-yl)-5-(quinolin-3-yl)phenyl)amino)-7H-pyrrolo[2,3-d]pyrimidin-4-yl)amino)quinoxalin-5-yl)dimethyl-phosphine oxide]	≤ 0.05	> 0.1	> 0.1
COc1cc(N(C)CCN(C)C)c(-c2cnn(C)c2)cc1Nc1nc(Nc2ccc3nccnc3c2P(C)(C)=O)c2cc[nH]c2n1 [Example 36, (6-((2-((4-((2-(dimethylamino)ethyl) (methyl)amino)-2-methoxy-5-(1-methyl-1H-pyrazol-4-yl)phenyl)amino)-7H-pyrrolo[2,3-d]pyrimidin-4-yl)amino)quinoxalin-5-yl)dimethyl-phosphine oxide]	≤ 0.05	≤ 0.05	> 0.1
COc1cc(N2CCC3(CCN(CC4(F)CC4)CC3)CC2)c(-c2cnn(C)c2)cc1Nc1nc(Nc2ccc3nccnc3c2P(C)(C)=O)c2cc[nH]c2n1 [Example 114, (6-((2-((4-(9-((1-fluorocyclo-propyl)methyl)-3,9-diazaspiro[5.5]undecan-3-yl)-2-methoxy-5-(1-methyl-1H-pyrazol-4-yl)phenyl)amino)-7H-pyrrolo[2,3-d]pyrimidin-4-yl)amino)quinoxalin-5-yl)dimethyl-phosphine oxide]	≤ 0.05	≤ 0.05	> 0.1
Cc1cn(-c2cc(Nc3nc(Nc4ccc5nccnc5c4P(C)(C)=O)c4cc[nH]c4n3)cc(C(F)(F)F)c2)cn1 [Example 106, dimethyl (6-((2-((3-(4-methyl-1H-imidazol-1-yl)-5-(trifluoromethyl)phenyl)amino)-7H-pyrrolo[2,3-d]pyrimidin-4-yl)amino)quinoxalin-5-yl)phosphine oxide]	≤ 0.05	> 0.1	> 0.1
COc1cc(N2CCN(C)CC2)c(C2CC2)cc1Nc1nc(Nc2ccc3nccnc3c2P(C)(C)=O)c2cc[nH]c2n1 [Example 83, (6-((2-((5-cyclopropyl-2-methoxy-4-(4-methylpiperazin-1-yl)phenyl)amino)-7H-pyrrolo[2,3-d]pyrimidin-4-yl)amino)quinoxalin-5-yl)dimethyl-phosphine oxide]	≤ 0.05	> 0.1	> 0.1

Continued, values first:

IC50 [1] [µM]	GI50 [2] [µM]	GI50 [3] [µM]	Structure (SMILES)
≤ 0.05	≤ 0.05	> 0.1	COc1cc(N2CCC3(CC2)COC3)c(-c2cnn(C)c2)cc1Nc1nc(Nc2ccc3nccnc3c2P(C)(C)=O)c2cc[nH]c2n1 [Example 32, (6-((2-((2-methoxy-5-(1-methyl-1H-pyrazol-4-yl)-4-(2-oxa-7-azaspiro[3.5]nonane-7-yl)phenyl)amino)-7H-pyrrolo[2,3-d]pyrimidin-4-yl)amino)quinoxalin-5-yl)dimethyl-phosphine oxide]
> 0.1	> 0.1	> 0.1	Cn1cc(-c2cc(N3CCOCC3)c3c(c2Nc2nc(Nc4ccc5nccnc5c4P(C)(C)=O)c4cc[nH]c4n2)OCCO3)cn1 [Example 135, dimethyl (6-((2-((6-(1-methyl-1H-pyrazol-4-yl)-8-morpholino-2,3-dihydrobenzo [b][1,4]dioxin-5-yl)amino)-7H-pyrrolo[2,3-d]pyrimidin-4-yl)amino)quinoxalin-5-yl)phosphine oxide]
≤ 0.05	> 0.1	> 0.1	COc1cc(N2CC3(CCOCC3)C2)c(-c2cnn(C)c2)cc1Nc1nc(Nc2ccc3nccnc3c2P(C)(C)=O)c2cc[nH]c2n1 [Example 33, (6-((2-((2-methoxy-5-(1-methyl-1H-pyrazol-4-yl)-4-(7-oxa-2-azaspiro[3.5]nonane-2-yl)phenyl)amino)-7H-pyrrolo[2,3-d]pyrimidin-4-yl)amino)quinoxalin-5-yl)dimethyl-phosphine oxide]
≤ 0.05	> 0.1	> 0.1	COc1cc(N2CCN(C)CC2)c(-c2ccoc2)cc1Nc1nc(Nc2ccc3nccnc3c2P(C)(C)=O)c2cc[nH]c2n1 [Example 75, (6-((2-((5-(furan-3-yl)-2-methoxy-4-(4-methylpiperazin-1-yl)phenyl)amino)-7H-pyrrolo[2,3-d]pyrimidin-4-yl)amino)quinoxalin-5-yl)dimethyl-phosphine oxide]
> 0.1	> 0.1	> 0.1	Cn1nccc1-c1ccc(Nc2nc(Nc3ccc4nccnc4c3P(C)(C)=O)c3cc[nH]c3n2)c2c1OCCO2 [Example 131, dimethyl (6-((2-((8-(1-methyl-1H-pyrazol-5-yl)-2,3-dihydrobenzo [b][1,4]dioxin-5-yl)amino)-7H-pyrrolo[2,3-d]pyrimidin-4-yl)amino)quinoxalin-5-yl)phosphine oxide]
≤ 0.05	≤ 0.05	> 0.1	COc1cc(OCCN(C)C)c(-c2cnn(C)c2)cc1Nc1nc(Nc2ccc3nccnc3c2P(C)(C)=O)c2cc[nH]c2n1 [Example 35, (6-((2-((4-(2-(dimethylamino)ethoxy)-2-methoxy-5-(1-methyl-1H-pyrazol-4-yl)phenyl)amino)-7H-pyrrolo[2,3-d]pyrimidin-4-yl)amino)quinoxalin-5-yl)dimethyl-phosphine oxide]
≤ 0.05	> 0.1	> 0.1	COc1cc(N2CC3(COC3)C2)c(-c2cnn(C)c2)cc1Nc1nc(Nc2ccc3nccnc3c2P(C)(C)=O)c2cc[nH]c2n1 [Example 29, (6-((2-((2-methoxy-5-(1-methyl-1H-pyrazol-4-yl)-4-(2-oxa-6-azaspiro[3.3]heptan-6-yl)phenyl)amino)-7H-pyrrolo[2,3-d]pyrimidin-4-yl)amino)quinoxalin-5-yl)dimethyl-phosphine oxide]
